{"source": "paper PMC5717343", "about": "(Open Biology, 2017)", "tested_on": "PrP^Sc in iPK1/2 cells", "type": "cell-based"}
{"substance": "dextran sulfate", "values": [{"measurement": "concentration of apparent curing", "result": "greater than 1 × 10^−6 M"}, {"measurement": "effect on PrP^Sc levels / prion infection (curing)", "result": "dose-dependent decrease in PrP^Sc"}, {"measurement": "IC50", "setting": "read-out: apparent IC50, reduction of PrP^Sc", "result": "~500", "unit": "nM"}]}
